Assay [1] relates to Ba/F3-IL7R^Stat5-CA cells. Nature of the assay: Cytotoxic activity in IL-7-dependent and IL-7-independent Ba/F3-IL7R^Stat5-CA cells. The format is cell-based, murine. To be noted: for Survival (%) over survival at day 0, reported as 100%: Ba/F3-IL7R^Stat5-CA cells, dose = IC50 or LC50 of each drug; for sensitivity of Ba/F3-IL7R^Stat5-CA cells with constitutive pStat5 (doxycycline): result in words. The text has this:
The doxycycline-inducible dual-colour TRMPVIR (TRE-dsRed-miR30/shRNA-PGK-Venus-IRES-rtTA3) retroviral vector[84] was kindly given by R. A. Dickins and was modified by replacing the dsRed-miR30/shRNA sequence by a T2A self-cleaving peptide[85] fusioned with the mCherry fluorescent protein (from TRIPZ, Addgene) inserted into the BamHI and EcoRI sites of the plasmid downstream of the TRE promoter to generate the TxTCPVIR (TRE-gene-T2A-mCherry-PGK-Venus-IRES-rtTA3) retroviral vector. Using standard cloning techniques, we inserted the full-length sequence of Stat5-CA from the pMig-R1 construct into the TxTCPVIR vector to generate the TxTCPVIR-Stat5-CA construct. All subcloned constructs were verified by DNA sequencing (Micromon, Monash University, Australia). Detailed cloning strategies, primers sequences and vectors are available on request.
Ba/F3 cells (kindly provided by a person from The Walter and Eliza Hall Institute of Medical Research) were infected with pMIG-R1/Il7r retroviral supernatants produced in 293T cells, and transduced cells were sorted with a BD Influx (BD Australia) and selected by culture in medium supplemented with 5 ng/mL rmIL-7 (#217-17, Pepro Tech, Rocky Hill NJ, USA) for 7 days. Ba/F3 cells stably expressing Il7r (Ba/F3-IL7R) were infected with TxTCPVIR-Stat5-CA retroviral supernatants produced in 293T. Cell sorting was performed with a BD Influx and transduced cells were treated with doxycycline for 48 h to induce the expression of the Stat5-CA-T2A-mCherry fusion protein.
Flow cytometry analyses were performed as previously described[10],[86] on single-cell suspensions stained using BD Pharmingen antibodies (BD Australia, North Ryde NSW, Australia) against mouse CD4 (RM4-5), CD8 (53-6.7), CD25 (PC61.5), CD44 (IM7), CD45.1 (A20), CD45.2 (104), Thy1.2 (53-2.1; #561616), TCRβ (H57-597), CD117 (ACK45), CD135 (A2F10.1), CD150 (TC15-12F12.2; #562373), B220 (RA3-6B2; #563708), CD3 (145-2C11; #563004), CD19 (ID3; #557655), Gr-1 (RB6-8C5; #563299 and #565033), CD11b (M1/70; #563015 and #560455), Ter119 (Ter119; #565523 and #557909), Sca-1 (D7; #558160) and an eBioscience antibody (eBioscience, Invitrogen) against mouse NOTCH1 (22E5). DN3 populations and IL-7R were stained using BioLegend antibodies (Australian Biosearch, Balcatta WA, Australia) against mouse CD28 (E18) and CD127 (A7R34), respectively. Apoptosis was measured using an antibody against AnnexinV (#556420, BD Australia) and the […] Sytox Blue (BD Australia) following the manufacturer’s protocol.

In assay [2] the test system is Notch1 and Hes1 in Lmo2-transgenic DN3a thymocytes. Nature of the assay: Surface Notch1 and intracellular Hes1 in Lmo2^Tg DN3a thymocytes on OP9-DL1. The assay is classed as cell-based, mouse. As to conditions: Lmo2-transgenic DN3a thymocytes on OP9-DL1 overnight, 0.2 μM Dynole 34-2. The procedure: Phosphoflow analysis was performed as previously described. Briefly, 2 × 10^6 cells stained for surface markers were subsequently resuspended into PBS 1× + 4% v/v paraformaldehyde and incubated for 10 min at 4 °C for fixation. Fixed cells were washed twice using PBS 1×, then resuspended in pre-chilled at −20 °C Perm Buffer III (BD Pharmingen) and incubated 30 min at 4 °C for permeabilization. Cells were washed twice using PBS 1× and incubated overnight at 4 °C in PBS 1× + 2% v/v fetal calf serum (FCS) with Cell Signalling purified antibodies (Genesearch Pty Ltd, Arundel QLD, Australia) against pSTAT5 (Tyr694; #9359), phospho-p38 MAPK (Thr180/Tyr182; #4511), phospho-p44/42 (Erk1/2; #9102), phospho-S6 (Ser235/236; #4856) and phospho-Akt (Ser473; #9271) or isotype control. […] Fluorescence-activated cell sorting (FACS) analysis was performed using LSRII and LSR Fortessa cytometers, following the gating strategies described in Supplementary Fig. 11. […]
For in vitro NOTCH1 signalling activation assays, cells were seeded on OP9 and OP9-DL1 stromal cell lines as described in the co-culture assays section and incubated overnight with either Dynole 34-2 or Ruxolitinib or DAPT resuspended in DMSO. […] Cells were washed twice, fixed and analysed for intracellular HES1 detection by flow cytometry as described in the FACS analysis section. […]

Molecules are shown by their SMILES. Values joined by “and” are separate entries in the source; they are usually repeats but may differ in a detail not shown here. Equal values may be shown once.

These results are taken from publication PMC7719179, “Small molecule inhibition of Dynamin-dependent endocytosis targets multiple niche signals and impairs leukemia stem cells” (Nature Communications, 2020).

With `CCCCCCCCNC(=O)C(C#N)=Cc1cn(CCCN(C)C)c2ccccc12` [Dynole 34-2, 2-Cyano-N-octyl-3-(1-(3-dimethylaminopropyl)-1H-indol-3-yl)-acrylamide], the “Survival (%) over survival at day 0, reported as 100%” value (“Survival (%) over survival” below) in assay [1] (+IL-7 -DOX, 0 h) was 100.02% and 100.26% and 101.92% and 100.41% and 100.83%; in assay [1] (+IL-7 -DOX, 24 h), 43.12% and 51.68% and 50.50% and 59.30% and 47.40% and 40.60%; in assay [1] (+IL-7 -DOX, 72 h) it was 14.22% and 14.73% and 23.20% and 19.38% and 17.76% and 14.96%; in assay [1] (+IL-7 -DOX, 96 h) it was 9.23% and 10.77% and 10.13% and 6.51% and 4.52% and 2.59%; in assay [1] (-IL-7 +DOX, 0 h) it was 100.62% and 100.47% and 99.53% and 102.59% and 101.73% and 102.89%; in assay [1] (-IL-7 +DOX, 24 h), 90.53% and 91.07% and 101.15% and 104.21% and 101.37% and 100.26%. In addition, the “Survival (%) over survival” value in assay [1] (-IL-7 +DOX, 48 h) was 94.10% and 95.40% and 97.40% and 99.30% and 95.90%; in assay [1] (-IL-7 +DOX, 72 h), 93.90% and 97.20% and 90.70% and 94.80% and 93.20% and 97.10%; in assay [1] (-IL-7 +DOX, 96 h) it was 93.40% and 86.60% and 95.50% and 96.20% and 87.10% and 90.40%; in assay [1] (-IL-7 +DOX, 120 h), 91.10% and 96.40% and 90.00% and 90.90% and 93.10% and 83.00%. In addition, the “sensitivity of Ba/F3-IL7R^Stat5-CA cells with constitutive pStat5 (doxycycline)” value in assay [1] is reported as “resistant”. Moreover, the “Hes1 (MFI)” value in assay [2] is 18345 MFI and 12543 MFI and 14751 MFI and 12961 MFI. Moreover, in assay [2], the “Notch1 (MFI)” value was 16352 MFI and 11570 MFI and 16901 MFI and 11730 MFI.

As to `N#CC[C@H](C1CCCC1)n1cc(-c2ncnc3[nH]ccc23)cn1` [Ruxolitinib], the “Survival (%) over survival” value in assay [1] (+IL-7 -DOX, 0 h) was 101.66% and 101.91% and 100.26% and 101.92% and 100.41% and 100.83%; in assay [1] (+IL-7 -DOX, 24 h), 71.50% and 70.41% and 55.25% and 49.40% and 37.10% and 63.11%; in assay [1] (-IL-7 +DOX, 0 h) it was 100.45% and 99.83% and 99.53% and 102.59% and 101.73% and 102.89%; in assay [1] (-IL-7 +DOX, 24 h), 85.97% and 82.57% and 104.88% and 98.10% and 101.20% and 101.43%; in assay [1] (-IL-7 +DOX, 48 h), 97.70% and 95.00% and 95.90% and 97.50% and 97.30% and 99.10%; in assay [1] (-IL-7 +DOX, 72 h), 94.40% and 93.30% and 85.80% and 83.20% and 99.40% and 84.90%. Further, the “Survival (%) over survival” value in assay [1] (-IL-7 +DOX, 96 h) is 93.30% and 85.80% and 83.20% and 99.40%; in assay [1] (-IL-7 +DOX, 120 h), 92.90% and 90.20% and 86.50% and 89.30% and 78.60% and 92.10%. For the same molecule, in assay [1], the “sensitivity of Ba/F3-IL7R^Stat5-CA cells with constitutive pStat5 (doxycycline)” value is recorded as “resistant”.
